Here are results for 15 compounds from patent publication US20110269788A1, “SPIRO-OXINDOLE-DERIVATIVES AS SODIUM CHANNEL BLOCKERS” (Xenon Pharmaceuticals Inc., priority 2008, published 2011).

A word on the melting point: it is the temperature, or range, at which the solid turns liquid. One may read the IC50 as the concentration that gives 50% inhibition. A high value points to weaker potency. As a reminder, the inhibition is the drop in the measured response relative to a control, in per cent. Low values mean little suppression, high ones strong suppression.

In one data set the test system is sodium channel. Format: cell-based, human or rat. The following applies: known cell line that expresses a sodium channel.
The target in a further data set is T1, CYP3A4 (Homo sapiens, UniProt P08684).
T1 construct: purchased Invitrogen Corporation Vivid CYP450 Screening Kit (catalogue number not given)
The data set is described as follows: Cytochrome P450 (CYP450) inhibition assay, Vivid fluorescence, CYP3A4. Format: in vitro ADME. The following applies: P450 Baculosomes (CYP3A4), probe Vivid substrate (fluorogenic, not named).

For the next data set, the target named is CYP2C19 (Homo sapiens, UniProt P33261). Description: in vitro. The source says:
(§1) CYP450 (CYP) is a designation for a superfamily of enzymes. Each family consists of one or more subfamilies and each subfamily contains one or more specific CYP isoforms. The Cytochrome P450 (CYP450) Inhibition Assay is a fluorescence-based assay using a cytochrome CYP isozyme for screening of compounds of the invention to determine the level of CYP inhibition by a specific compound. The assay is based on the CYP inhibition kit described by Vivid CYP450 Screening Kit Protocol, 2005, Invitrogen Corporation (Invitrogen Corporation, 1600 Faraday Avenue, Carlsbad, Calif. 92008, USA).
(§2) This assay is designed to assess compounds by quantifying the inhibition of the predominant human CYP isozymes involved in hepatic drug metabolism. […] The standard method for evaluating specific CYP isozyme inhibition is to determine the conversion rate of a probe substrate into its metabolite, in the presence and absence of the potential inhibitor. Quantification of the metabolite is achieved by HPLC or by using a probe substrate (Table 3) that is metabolized into a fluorescent product (fluorescent assay).
(§3) This assay can be used for single concentration screening or for IC50 determination. In a single concentration screening assay, the final assay concentration of the test compound is 10 μM. In an IC50 determination assay, IC50 may be determined using a 3, 6, or 12 point curve in triplicate with a chosen starting concentration diluted serially.
(§4) In the Preparation Stage, the test compounds, controls (acetonitrile (ACN) or Dimethyl sulfoxide (DMSO) and No Baculosomes), and known inhibitors (Table 4) were diluted to 10% ACN or DMSO in water at appropriate concentrations.

The target in another data set is CYP2D6 (Homo sapiens, UniProt P10635). The data set is described as follows: in vitro.
Description: as §1, §2, §3, §4

Another data set addresses CYP2C9 (Homo sapiens, UniProt P11712). The data set is described as follows: in vitro.
Description: as §1, §2, §3, §4

The test system of another data set is CHO-K1 (NaV1.4). Format: cell-based, Chinese Hamster.
The target in the next data set is SK-N-BE2C (NaV1.8) (Homo sapiens, UniProt Q9Y5Y9). Format: cell-based.
Another data set deals with L6 (Nav1.4 and 1.5). Format: cell-based, rat.
The subject of data set [1] is SH-SY5Y (NaV1.9 and NaV1.7). Format: cell-based, Human.
In a further data set the target is PC12 (Nav1.2) (Rattus norvegicus, UniProt P04775).
Chain of PC12 (Nav1.2) (P04775 whole entry, looked up): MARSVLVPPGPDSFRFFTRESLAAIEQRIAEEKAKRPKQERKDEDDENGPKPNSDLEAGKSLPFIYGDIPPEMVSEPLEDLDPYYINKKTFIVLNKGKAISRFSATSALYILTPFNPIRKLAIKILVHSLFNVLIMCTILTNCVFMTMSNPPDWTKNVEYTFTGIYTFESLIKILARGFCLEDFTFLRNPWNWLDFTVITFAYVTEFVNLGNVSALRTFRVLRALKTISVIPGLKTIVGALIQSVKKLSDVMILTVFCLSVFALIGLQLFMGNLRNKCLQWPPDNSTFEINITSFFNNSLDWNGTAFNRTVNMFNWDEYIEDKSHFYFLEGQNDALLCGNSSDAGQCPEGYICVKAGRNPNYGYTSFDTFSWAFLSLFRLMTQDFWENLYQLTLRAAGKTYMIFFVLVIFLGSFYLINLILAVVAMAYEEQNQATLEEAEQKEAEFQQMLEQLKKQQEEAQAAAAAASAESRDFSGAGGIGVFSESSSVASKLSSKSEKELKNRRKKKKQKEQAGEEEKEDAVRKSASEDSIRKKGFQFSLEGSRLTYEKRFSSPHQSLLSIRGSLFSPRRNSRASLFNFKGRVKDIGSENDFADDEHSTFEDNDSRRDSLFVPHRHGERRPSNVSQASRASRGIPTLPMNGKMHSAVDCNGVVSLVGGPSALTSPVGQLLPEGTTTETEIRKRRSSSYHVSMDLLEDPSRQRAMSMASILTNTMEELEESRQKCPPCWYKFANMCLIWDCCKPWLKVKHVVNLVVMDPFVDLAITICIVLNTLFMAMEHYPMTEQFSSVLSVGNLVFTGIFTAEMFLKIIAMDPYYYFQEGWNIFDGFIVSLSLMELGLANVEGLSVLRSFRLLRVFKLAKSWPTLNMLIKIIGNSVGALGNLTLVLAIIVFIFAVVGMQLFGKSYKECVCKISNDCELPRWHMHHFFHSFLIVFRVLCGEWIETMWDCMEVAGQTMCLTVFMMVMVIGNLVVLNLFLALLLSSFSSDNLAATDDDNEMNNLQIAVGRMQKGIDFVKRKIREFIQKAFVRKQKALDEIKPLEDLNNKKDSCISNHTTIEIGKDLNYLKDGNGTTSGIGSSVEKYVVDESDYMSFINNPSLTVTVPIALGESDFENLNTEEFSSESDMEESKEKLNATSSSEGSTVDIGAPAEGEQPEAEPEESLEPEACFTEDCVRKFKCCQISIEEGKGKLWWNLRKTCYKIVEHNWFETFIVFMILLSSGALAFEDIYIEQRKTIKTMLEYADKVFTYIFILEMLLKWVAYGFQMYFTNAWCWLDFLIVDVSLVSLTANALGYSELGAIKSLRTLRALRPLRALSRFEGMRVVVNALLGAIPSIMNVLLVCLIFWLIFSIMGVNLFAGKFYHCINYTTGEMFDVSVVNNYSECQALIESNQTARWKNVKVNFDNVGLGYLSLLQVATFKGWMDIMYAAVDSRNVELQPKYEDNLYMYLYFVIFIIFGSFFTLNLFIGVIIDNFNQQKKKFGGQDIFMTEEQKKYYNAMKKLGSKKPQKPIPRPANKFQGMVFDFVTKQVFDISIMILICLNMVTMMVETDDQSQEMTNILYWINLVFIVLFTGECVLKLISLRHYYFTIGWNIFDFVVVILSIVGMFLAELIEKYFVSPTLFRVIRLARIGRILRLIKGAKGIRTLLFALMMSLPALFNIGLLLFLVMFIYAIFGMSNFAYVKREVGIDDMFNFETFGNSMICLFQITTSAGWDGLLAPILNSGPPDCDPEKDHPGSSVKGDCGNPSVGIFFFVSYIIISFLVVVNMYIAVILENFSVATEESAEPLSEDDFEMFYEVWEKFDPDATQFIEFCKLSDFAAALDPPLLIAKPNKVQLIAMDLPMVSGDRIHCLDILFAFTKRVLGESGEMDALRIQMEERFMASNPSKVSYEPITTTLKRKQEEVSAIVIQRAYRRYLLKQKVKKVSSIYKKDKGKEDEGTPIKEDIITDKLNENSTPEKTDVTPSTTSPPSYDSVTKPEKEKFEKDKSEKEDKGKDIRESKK

T1 sequence (P08684 whole entry): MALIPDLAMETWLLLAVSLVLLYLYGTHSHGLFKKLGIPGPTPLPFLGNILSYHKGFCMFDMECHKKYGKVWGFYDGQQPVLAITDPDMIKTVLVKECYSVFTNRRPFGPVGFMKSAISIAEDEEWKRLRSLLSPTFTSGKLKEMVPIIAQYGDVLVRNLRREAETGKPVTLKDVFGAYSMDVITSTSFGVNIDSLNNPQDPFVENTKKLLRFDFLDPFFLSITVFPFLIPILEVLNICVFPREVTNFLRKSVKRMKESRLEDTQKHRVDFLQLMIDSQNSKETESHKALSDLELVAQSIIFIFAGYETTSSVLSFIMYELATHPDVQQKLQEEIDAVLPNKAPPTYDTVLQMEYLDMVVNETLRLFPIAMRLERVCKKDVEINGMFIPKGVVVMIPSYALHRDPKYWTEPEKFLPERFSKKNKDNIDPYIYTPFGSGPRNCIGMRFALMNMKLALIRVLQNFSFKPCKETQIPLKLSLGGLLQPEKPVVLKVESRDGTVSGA
Chain of CYP2C19 (P33261 whole entry, canonical isoform): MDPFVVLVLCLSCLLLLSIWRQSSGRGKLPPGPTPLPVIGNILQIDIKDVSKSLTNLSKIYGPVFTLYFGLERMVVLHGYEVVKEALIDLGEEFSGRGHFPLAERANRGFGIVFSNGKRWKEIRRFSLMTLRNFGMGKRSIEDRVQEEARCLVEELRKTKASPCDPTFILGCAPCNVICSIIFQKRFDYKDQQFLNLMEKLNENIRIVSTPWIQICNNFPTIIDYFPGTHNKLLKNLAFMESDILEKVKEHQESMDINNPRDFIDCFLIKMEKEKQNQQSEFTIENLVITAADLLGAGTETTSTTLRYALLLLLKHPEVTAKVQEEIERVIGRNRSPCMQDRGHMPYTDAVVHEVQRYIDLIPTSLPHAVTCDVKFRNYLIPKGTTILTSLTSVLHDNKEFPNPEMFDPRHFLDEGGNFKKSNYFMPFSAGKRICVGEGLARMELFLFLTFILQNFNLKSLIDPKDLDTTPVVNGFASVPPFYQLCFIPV
Chain of SK-N-BE2C (NaV1.8) (Q9Y5Y9 whole entry, looked up): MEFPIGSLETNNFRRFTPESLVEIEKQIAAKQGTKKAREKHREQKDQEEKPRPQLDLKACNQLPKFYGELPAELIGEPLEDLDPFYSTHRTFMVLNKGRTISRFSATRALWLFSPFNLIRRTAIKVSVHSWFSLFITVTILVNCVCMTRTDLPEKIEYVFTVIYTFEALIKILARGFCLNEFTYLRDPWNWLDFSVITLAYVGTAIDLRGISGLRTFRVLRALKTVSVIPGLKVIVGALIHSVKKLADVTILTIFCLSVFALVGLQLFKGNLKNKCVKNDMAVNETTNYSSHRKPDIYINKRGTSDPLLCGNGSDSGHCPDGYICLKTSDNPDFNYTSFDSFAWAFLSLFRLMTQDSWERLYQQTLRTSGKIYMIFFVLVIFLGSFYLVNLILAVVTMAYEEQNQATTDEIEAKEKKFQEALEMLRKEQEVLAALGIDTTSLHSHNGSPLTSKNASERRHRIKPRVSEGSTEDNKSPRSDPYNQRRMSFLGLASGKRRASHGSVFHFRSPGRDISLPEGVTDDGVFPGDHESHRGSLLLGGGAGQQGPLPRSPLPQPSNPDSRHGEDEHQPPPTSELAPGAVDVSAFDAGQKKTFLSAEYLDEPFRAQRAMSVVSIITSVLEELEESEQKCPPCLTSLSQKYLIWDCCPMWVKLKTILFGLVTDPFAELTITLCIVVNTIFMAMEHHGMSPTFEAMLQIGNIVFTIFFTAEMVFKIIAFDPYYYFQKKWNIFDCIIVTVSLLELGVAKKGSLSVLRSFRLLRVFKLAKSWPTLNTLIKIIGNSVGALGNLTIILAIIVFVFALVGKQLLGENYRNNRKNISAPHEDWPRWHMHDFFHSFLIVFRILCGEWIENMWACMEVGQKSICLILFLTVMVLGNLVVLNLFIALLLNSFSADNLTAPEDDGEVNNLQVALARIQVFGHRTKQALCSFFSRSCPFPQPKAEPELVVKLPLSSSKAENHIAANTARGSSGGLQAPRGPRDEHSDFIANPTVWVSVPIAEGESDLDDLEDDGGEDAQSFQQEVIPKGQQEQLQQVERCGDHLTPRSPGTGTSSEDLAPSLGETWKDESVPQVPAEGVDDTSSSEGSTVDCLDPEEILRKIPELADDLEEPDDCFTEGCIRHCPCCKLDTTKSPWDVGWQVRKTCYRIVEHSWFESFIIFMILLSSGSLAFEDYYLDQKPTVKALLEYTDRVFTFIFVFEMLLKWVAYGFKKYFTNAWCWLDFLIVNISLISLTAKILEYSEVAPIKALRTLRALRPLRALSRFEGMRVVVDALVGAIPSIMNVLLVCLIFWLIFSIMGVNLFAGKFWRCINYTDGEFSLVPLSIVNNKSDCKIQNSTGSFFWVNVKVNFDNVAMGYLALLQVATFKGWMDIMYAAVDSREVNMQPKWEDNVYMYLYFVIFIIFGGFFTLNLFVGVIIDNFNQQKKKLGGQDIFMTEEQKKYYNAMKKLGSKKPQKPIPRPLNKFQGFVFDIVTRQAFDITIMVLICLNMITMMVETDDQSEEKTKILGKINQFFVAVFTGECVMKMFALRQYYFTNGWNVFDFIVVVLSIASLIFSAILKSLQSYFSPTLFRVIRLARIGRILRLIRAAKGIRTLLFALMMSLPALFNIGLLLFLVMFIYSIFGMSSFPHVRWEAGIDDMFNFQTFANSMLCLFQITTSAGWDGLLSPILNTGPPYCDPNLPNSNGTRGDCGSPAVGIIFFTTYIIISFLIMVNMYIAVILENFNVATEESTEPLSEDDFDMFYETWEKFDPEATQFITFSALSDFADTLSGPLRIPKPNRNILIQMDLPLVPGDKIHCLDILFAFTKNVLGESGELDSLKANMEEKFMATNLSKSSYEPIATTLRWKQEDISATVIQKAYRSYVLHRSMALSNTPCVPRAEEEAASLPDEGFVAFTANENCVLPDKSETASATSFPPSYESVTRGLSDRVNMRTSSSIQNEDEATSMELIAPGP

For the compound `COc1ccc2c(n1)C1(CO2)C(=O)N(C[C@H]2CCCO2)c2cccc(Br)c21` (stereo partly drawn) [Example 1, 4′-bromo-5-methoxy-1′-[(2R)-tetrahydrofuran-2-ylmethyl]spiro[furo[3,2-b]pyridine-3,3′-indol]-2′(1′H)-one], the melting point lay within 110 to 112 °C. The same compound displayed an IC50 in the data set on sodium channel of 100 to 1000 nM. This compound displayed an inhibition at 10 µM on CYP3A4 of less than 50%.

`COc1ccc2c(n1)C1(CO2)C(=O)N(C[C@H]2CCCO2)c2ccccc21` (stereo partly drawn) [Example 2, 5-methoxy-1′-[(2R)-tetrahydrofuran-2-ylmethyl]spiro[furo[3,2-b]pyridine-3,3′-indol]-2′(1′H)-one] showed a melting point of 52 to 56 °C.

As to `COc1ccc2c(n1)C1(CO2)C(=O)N(Cc2ccc3c(c2)OCCO3)c2ccccc21` (stereo not drawn) [Example 3, 1′-(2,3-dihydro-1,4-benzodioxin-6-ylmethyl)-5-methoxyspiro[furo[3,2-b]pyridine-3,3′-indol]-2′(1′H)-one], the melting point was in the range of 144 to 146 °C. Moreover, the IC50 in the data set with sodium channel lay within 1 to 100 nM.

For the compound `O=C1N(C[C@H]2CCCO2)c2ccccc2C12COc1c[nH]c(=O)cc12` (stereo partly drawn) [Example 4, 1′-[(2R)-tetrahydrofuran-2-ylmethyl]spiro[furo[2,3-c]pyridine-3,3′-indole]-2′,5(1′H,6H)-dione], the melting point is more than 250 °C. Besides, in the data set on sodium channel, the IC50 lay within 1000 to 10000 nM. The compound also gave an inhibition at 10 µM against CYP3A4 of less than 50%.

For `O=C1Nc2ncccc2C12COc1cc3c(cc12)OCCO3` (stereo not drawn) [Example 6, 2,3-dihydrospiro[furo[2,3-g][1,4]benzodioxine-8,3′-pyrrolo[2,3-b]pyridin]-2′(1′H)-one], the melting point was more than 250 °C. The compound also showed an IC50 with sodium channel of 100 to 1000 nM. The same compound registered an inhibition at 10 µM on CYP3A4 of less than 50%.

With `O=C1N(Cc2ccccn2)c2ncccc2C12COc1cc3c(cc12)OCCO3` (stereo not drawn) [Example 7, 1′-(pyridin-2-ylmethyl)-2,3-dihydrospiro[furo[2,3-g][1,4]benzodioxine-8,3′-pyrrolo[2,3-b]pyridin]-2′(1′H)-one], in the data set with sodium channel, the IC50 lay within 1 to 100 nM. For the same compound, the inhibition at 10 µM against CYP3A4 is less than 50%.

With `O=C1N(Cc2ncccc2C(F)(F)F)c2ncccc2C12COc1cc3c(cc12)OCCO3` (stereo not drawn) [Example 8, 1′-{[3-(trifluoromethyl)pyridin-2-yl]methyl}-2,3-dihydrospiro[furo[2,3-g][1,4]benzodioxine-8,3′-pyrrolo[2,3-b]pyridin]-2′(1′H)-one], the IC50 in the data set on sodium channel fell in the range of 100 to 1000 nM. The inhibition at 10 µM against CYP3A4 was less than 50%.

For `O=C1Nc2cccnc2C12COc1cc3c(cc12)OCCO3` (stereo not drawn) [Example 10, 2,3-dihydrospiro[furo[2,3-g][1,4]benzodioxine-8,3′-pyrrolo[3,2-b]pyridin]-2′(1′H)-one], the melting point is more than 250 °C. This compound also registered an IC50 with sodium channel of 1000 to 10000 nM. Moreover, the inhibition at 10 µM against CYP3A4 was less than 50%.

`O=C1N(Cc2ccccn2)c2cccnc2C12COc1cc3c(cc12)OCCO3` (stereo not drawn) [Example 11, 1′-(pyridin-2-ylmethyl)-2,3-dihydrospiro[furo[2,3-g][1,4]benzodioxine-8,3′-pyrrolo[3,2-b]pyridin]-2′(1′H)-one] displayed a melting point of 146 to 147 °C. Further, the IC50 in the data set on sodium channel was 100 to 1000 nM. Also, at CYP3A4, the inhibition at 10 µM is less than 50%.

In turn, `O=C1N(Cc2ncccc2C(F)(F)F)c2cccnc2C12COc1cc3c(cc12)OCCO3` (stereo not drawn) [Example 12, 1′-{[3-(trifluoromethyl)pyridin-2-yl]methyl}-2,3-dihydrospiro[furo[2,3-g][1,4]benzodioxine-8,3′-pyrrolo[3,2-b]pyridin]-2′(1′H)-one] had a melting point of more than 250 °C. This compound also yielded an IC50 in the data set on sodium channel of 100 to 1000 nM. This compound had an inhibition at 10 µM on CYP3A4 of less than 50%.

`COc1ccc2c(n1)C1(CO2)C(=O)N(Cc2ncccc2C(F)(F)F)c2ccccc21` (stereo not drawn) [Example 13, 5-methoxy-1′-{[3-(trifluoromethyl)pyridin-2-yl]methyl}spiro[furo[3,2-b]pyridine-3,3′-indol]-2′(1′H)-one] returned a melting point of 195 to 198 °C. For the same compound, in the data set on sodium channel, the IC50 fell in the range of 100 to 1000 nM. For the same compound, the inhibition at 10 µM on CYP3A4 is less than 50%.

Take `CC(=O)N1CCN(c2ccc(OCC3COC(Cn4ccnc4)(c4ccc(Cl)cc4Cl)O3)cc2)CC1` (stereo not drawn) [Ketoconazole]: at 7.62 µM the inhibition against CYP2C19 was 65%.

On to `C=C[C@H]1C[N@@]2CC[C@H]1C[C@@H]2[C@@H](O)c1ccnc2ccc(OC)cc12` [Quinidine], for which the inhibition at 0.0137 µM on CYP2D6 was 55%.

Consider `Nc1ccc(S(=O)(=O)Nc2ccnn2-c2ccccc2)cc1` [Sulfaphenazole], for which the inhibition at 0.42 µM against CYP2C9 is 50%.

In the case of `NC1=N[C@H](O)[C@H]2[C@H]3O[C@]4(O)O[C@@H]([C@@H](O)[C@@]2(N1)[C@@H]4O)[C@]3(O)CO` [TTX, tetrodotoxin], the “block of the increase in [14C] guanidine influx” value is reported as “completely blocked using TTX” in the data set on CHO-K1 (NaV1.4); “TTX partially blocked influx” at SK-N-BE2C (NaV1.8); “partially blocked by TTX at 100” in the data set on L6 (Nav1.4 and 1.5); “background was partially blocked” in [1]; “guanidine influx was completely” at PC12 (Nav1.2).
